Experimental data as given in publication PMC6214985, “Potassium usnate, a water-soluble usnic acid salt, shows enhanced bioavailability and inhibits invasion and metastasis in colorectal cancer” (Scientific Reports, 2018).
“And” between values parts separate entries of the source, which are not always exact repeats. Identical values can stand only once.

What was measured:
[1] = system: colorectal cancer cells (HCT116, DLD1, SW480, HT29, SW620, Caco2, COLO320, CT26); test: Cell viability assay (MTT); assay type: cell-based, human; mouse (CT26); details: 48 h, 12.5–100 μM
Description: The human colorectal cancer cell lines HCT116, DLD1, SW480, HT29, SW620, Caco2, and COLO320, and the mouse colorectal cancer cell line CT26, were used in this study. Cells were cultured in DMEM supplemented with 10% fetal bovine serum and 1% Penicillin-Streptomycin solution under a humidified 5% CO2 atmosphere at 37 °C in an incubator.
Colorectal cancer cell growth and survival were detected with the colorimetric quantification of 3-(4,5-dimethylthiazol-2-yl)-2,5-diphenyltetrazolium bromide using the MTT assay. Briefly, cells were seeded and cultured in 96-well plates (2.5 × 10^3 cells/well), and treated with UA or KU for 48 h. After DMSO dissolution, the absorbance at 540 nm was determined using a microplate reader with Gen 5 (2.03.1) software (BioTek Eon, VT, USA).

[2] = Water solubility by μSol Method; assay type: physicochemical; details: 25 °C, pH 7.4, μSol Method with DMSO stock solution
[3] = Hydrolytic stability at pH 4–7; assay type: physicochemical; details: pH range of 4–7, room temperature
Description: To determine whether the salt form of UA improved its bioavailability, the amount and concentration of usnate in the tumors, liver, and plasma of CT26 syngeneic tumor xenograft-bearing mice were measured by LC-MS/MS analysis. UA or KU was administered orally at a dose of 30 mg/kg at 7 days after CT26 cell inoculation, and the tumor tissues, liver tissues, and plasma of mice were collected after 16 h. […] Assuming that the density of tumor tissue is 0.1 to 1.0 mL/g, the concentration of usnate in tumor tissue is about 1.51 to 15.1 μM. Similarly, the amounts of usnate detected in liver tissues were 0.2788 ± 0.034 nmol/g of tissue for UA and 2.5789 ± 0.402 nmol/g of tissue for KU administered mice (Fig. 2C); the plasma concentrations of usnate were 0.181 ± 0.016 μM for UA and 1.690 ± 0.122 μM for KU administered mice (Fig. 2D).
Supplementary Figure 3. The stability of UA at the pH range of 4–7 in room temperature. (A) UA stability at pH 7.0. (B) UA stability at pH 6.8. (A) UA stability at pH 6.0. (A) UA stability at pH 4.5

[4] = system: Caco2, HCT116, and CT26 cells; test: Cell invasion assay (Boyden chamber); assay type: cell-based, human; mouse (CT26); details: 5 μM, 24 h, vs control
Description: Invasion assays were performed in Boyden chambers (Corning, New York, USA)[16]. A 120 μL Cells (2 × 10^6) suspended in medium (DMEM containing 0.2% BSA dissolved in PBS) treated with or without UA or KU were seeded in the upper transwell chamber (Corning, New York, USA) coated with gelatin. Then, fibronectin (10 μg/mL) was added into the lower chamber medium (400 μL) as a chemotactic agent.Then invaded cells adhering to the underneath of upper chamber were fixed and stained with the Diff Quik kit (Sysmex) after 24 h of incubation. The quantitation of the cells were performed under an upright microscope (5 fields/chamber). Each invasion assay was repeated in three independent experiments.

[5] = system: CT26 cells expressing firefly luciferase (CT26-Fluc); test: Orthotopic liver metastasis model (CT26-Fluc, intrasplenic injection); assay type: in vivo, BALB/c mice; details: 5 or 10 mg/kg intraperitoneal
Description: Five-week-old male BALB/c mice with pathogen-free condition were obtained from Orient Company (Seongnam, Korea). According to the Guiding Principles in the Care and Use of Animals (DHEW publication, NIH 80–23), the handling of animals and all in vivo experiments were performed. The Chonnam National University Medical School Research Institutional Animal Care and Use Committee approved the experimental protocol.
A syngeneic mouse model of colorectal cancer metastasis to the liver was established by infusion of tumor cells into the portal system via intrasplenic injection. […] For optical live imaging in this model, a splenectomy was performed immediately after inoculation of tumor cell, and the firefly luciferase activity was analyzed at several time points with the Xenogen system. […] Weight of tumor was determined by subtracting the average weight of liver of normal mice (n = 4) from the weight of total tumor-bearing liver with addition of the weight of total extrahepatic tumors. […] To evaluate inhibition of tumor growth, mice were analyzed every 7 days with the use of optical imaging. […] Metastatic tumor nodules in the liver with a diameter of >1.0 mm were counted using a microscope, and a metastasis score was assigned based on nodule size as follows: 0 (no gross metastasis), 1 (tumor size >1 mm), and 10 (tumor size >5 mm). […]

[6] = system: N-cadherin, Snail, Twist, Slug, and ZEB2 mRNA in Caco2 cells; test: qRT-PCR of EMT markers in Caco2 cells; assay type: cell-based, human; details: 5 μM
Description: Quantitative RT-PCR (qRT-PCR) was performed as previously described. Briefly, total RNA ([…]) isolated from UA- or KU-treated Caco2 cells using RNAiso Plus (TaKaRa, Otsu, Shiga 520–2193, Japan) was used to synthesize cDNA using a M-MLV reverse transcriptase kit (Invitrogen, Carlsbad, CA, USA) and SYBR green (Enzynomics, Seoul, Korea). The primers used for real-time PCR were as follows: E-cadherin (forward) 5′-[…]-3′ and (reverse) 5′-[…]-3′; N-cadherin (forward) 5′-[…]-3′ and (reverse) 5′-[…]-3′; Snail (forward) 5′-[…]-3′ and (reverse) 5′-tgggagacacatcggtcga-3′; Twist (forward) 5′-cgggagtccgcagtctta-3′ and (reverse) 5′-[…]-3′; Slug (forward) 5′-[…]-3′ and (reverse) 5′-[…]-3′; ZEB1(forward) 5′-atgacacaggaaaggaagg-3′ and (reverse) 5′-agcagtgtcttgttgtag-3′; ZEB2 (forward) 5′-caagaggcgcaaacaagcc-3′ and (reverse) 5′-[…]-3′; CAPN1 (forward) 5′-[…]-3′ and (reverse) 5′-[…]-3′; CDC42 (forward) 5′-[…]-3′ and (reverse) 5′-[…]-3′; CFL1 (forward) 5′-caaggatgccatcaagaa-3′ and (reverse) 5′-atccttagcctcctcgta-3′; IGF1 (forward) 5′-[…]-3′ and (reverse) 5′-[…]-3′; WASF1 (forward) 5′-[…]-3′ and (reverse) 5′-[…]-3′; WASL (forward) 5′-[…]-3′ and (reverse) 5′-[…]-3′; and GAPDH (forward) 5′-[…]-3′ and (reverse) 5′-[…]-3′. qRT-PCR reactions and analyses were performed using CFX (Bio-Rad, Hercules, CA, USA).

[7] = Usnate distribution by LC-MS/MS after oral administration in CT26 syngeneic mouse tumor xenograft model; assay type: in vivo; details: 30 mg/kg oral, 16 h after dosing; CT26 xenograft mice
Description: Stock solutions (10 mM) of UA or KU were prepared by dissolution in DMSO. Stock standard solutions were stored at −20 °C. A working standard solution was prepared by dilution of the stock standard solution with a mixture of acetonitrile-water (1:1, v/v). The working standard solution was serially diluted to prepare a concentration series of 0.975, 3.9, 15.6, 62.5, 250, 1000, and 4000 nM in 50% acetonitrile.
Skin tumor xenografts were established using CT26 cells. After 7 days of inoculation and gross tumor formation, UA or KU at 30 mg/kg was administered orally, and tumor, liver, and plasma samples were collected after 16 h (n = 9 each). Mouse tumor and liver samples were homogenized in four volumes of ice-cold deionized water. Plasma and homogenized tissue samples were prepared for analysis in a 96-well cluster tube plate by protein precipitation. A volume of 30 µL of each sample was transferred to eight-well tube strips placed in an 8 × 12 rack (VWR, Emeryville, CA, USA). Four volumes of ice-cold extraction solution (acetonitrile) containing 4-methylumbelliferone (4-MUF, internal standard) were added and vortexed for 10 min. After sonication for 30 min, samples were placed on ice for 1 h. The 96-well cluster tube plate was centrifuged at 1000 × g for 10 min, and the supernatant was analyzed by LC-MS/MS. Standard samples were prepared in the same manner using a blank matrix.
Samples were analyzed with the Prominence UPLC system (Shimadzu, Japan) equipped with an API 3200 QTRAP™ LC-MS/MS system (Applied Biosystems, Foster City, CA, USA). Sample volumes of 10 μL were injected into an Aquity HSS UPLC C18 column (2.5 × 100 mm, 1.8 µm i.d.; Waters, Milford, MA, USA) and maintained at 30 °C. The column was pre-equilibrated in 100% v/v solvent A (deionized water containing 0.1% v/v formic acid)/0% v/v solvent B (acetonitrile containing 0.1% v/v formic acid) at a flow rate of 0.3 mL/min. […] The samples were analyzed via multiple reaction monitoring. […]

[8] = system: Twist, Snail, and Slug protein in Caco2 cells; test: Western blotting of EMT markers in Caco2 cells; assay type: cell-based, human; details: 24 h
Description: Cells treated with UA or KU for 24 h were washed twice with ice-cold PBS and lysed in lysisbuffer. Antibodies against E-cadherin (61018, BD Biosciences, San Diego, CA, USA), N-cadherin (610921, BD Biosciences), Snail/Slug (ab180714, Abcam, Cambridge, MA, USA), Twist (ab49254, Abcam), PARP (9542, Cell Signaling), Caspase-3 (9662, Cell Signaling), α-Tubulin (2125, Cell Signaling), and ZEB2 (HPA003456, Sigma) were detected with horseradish peroxidase-conjugated secondary antibody (Thermo Fisher Scientific, Waltham, MA, USA) with the use of Immobilon Western Chemiluminescent HRP Substrate Kit (Merck Millipore, Billerica, MA, USA) and luminescence imaging (Image Quant LAS 4000 mini). Multi-Gauge 3.0 was used to measure bands, and relative density was calculated based on the density of the α-tubulin bands in each sample. Expression of values were as arbitrary densitometric units corresponding to signal intensity.

[9] = system: CAPN1, CDC42, CFL1, IGF1, WASF1, and WASL in Caco2 cells; test: Cell motility-related gene expression (RT2 profiler PCR / qRT-PCR) in Caco2 cells; assay type: cell-based, human; details: same concentration for UA and KU
Description: The RT² Profiler™ PCR Array (330231, SA Biosciences, Qiagen, Courtaboeuf, France) was used to examine the expression patterns of 84 genes involved in human cell motility as previouslydescribed. The manufacturer’s instructions were strictly followed. Gene expression levels were analyzed using the web-based software ‘RT2 Profiler PCR Array Data Analysis version 3.5′. Six cell motility-related genes, including CAPN1, CDC42, CFL1, IGF1, WASF1, and WASL, were selected as candidates.
Quantitative RT-PCR (qRT-PCR) was performed as previously described. Briefly, total RNA ([…]) isolated from UA- or KU-treated Caco2 cells using RNAiso Plus (TaKaRa, Otsu, Shiga 520–2193, Japan) was used to synthesize cDNA using a M-MLV reverse transcriptase kit (Invitrogen, Carlsbad, CA, USA) and SYBR green (Enzynomics, Seoul, Korea). […]

Substance: Usnic acid [UA]
- cytotoxic activity (cell viability) [1]: showed cytotoxic activity in all the tested colorectal cancer cells
- water solubility [2]: 52.2 ± 2.90 μM and 17.7 ± 0.20 μg/mL
- hydrolytic stability [3]: consistent
- number of invaded cells / invasion [4]: lower in the UA-treated groups than in the control groups
- inhibitory effect on metastasis in vivo [5]: no significant inhibitory effect on metastasis
- metastasis score ([5]; six or ten times within 2 weeks, vs control): did not detect a statistically significant difference
- mRNA levels of N-cadherin, Snail, Twist, Slug, and ZEB2 [6]: significantly decreased
- amount of usnate in liver tissues [7]: 0.2788 ± 0.034 nmol/g of tissue
- amount of usnate in tumor tissues [7]: undetectable
- plasma concentration of usnate [7]: 181 ± 16 nM
- protein level of Twist, Snail, and Slug [8]: downregulated
- expression of cell motility-related genes CAPN1, CDC42, CFL1, IGF1, WASF1, and WASL [9]: only CFL1 and IGF1 gene expression levels were decreased
